From patent publication US20210130339A1, “COMPOUNDS” (GLAXOSMITHKLINE INTELLECTUAL PROPERTY DEVELOPMENT LIMITED, priority 2017, published 2021)

Key:
[1] = molecular target: T1, recombinant full length LRRK2 (Homo sapiens, UniProt Q5S007); experiment: Recombinant cellular LRRK2 AlphaScreen assay; format: cell-based; conditions: LRRK2 Ser935 phosphorylation, SH-SY5Y cells over-expressing recombinant full length LRRK2; read-out: pIC50 in the recombinant cellular LRRK2 AlphaScreen assay (converted)
T1 construct: A BacMam virus expressing full length recombinant LRRK2 was purchased from Invitrogen; host or cells: SH-SY5Y human neuroblastoma cells transduced with BacMam LRRK2 virus (MOI 50)
T1 sequence (Q5S007 whole entry): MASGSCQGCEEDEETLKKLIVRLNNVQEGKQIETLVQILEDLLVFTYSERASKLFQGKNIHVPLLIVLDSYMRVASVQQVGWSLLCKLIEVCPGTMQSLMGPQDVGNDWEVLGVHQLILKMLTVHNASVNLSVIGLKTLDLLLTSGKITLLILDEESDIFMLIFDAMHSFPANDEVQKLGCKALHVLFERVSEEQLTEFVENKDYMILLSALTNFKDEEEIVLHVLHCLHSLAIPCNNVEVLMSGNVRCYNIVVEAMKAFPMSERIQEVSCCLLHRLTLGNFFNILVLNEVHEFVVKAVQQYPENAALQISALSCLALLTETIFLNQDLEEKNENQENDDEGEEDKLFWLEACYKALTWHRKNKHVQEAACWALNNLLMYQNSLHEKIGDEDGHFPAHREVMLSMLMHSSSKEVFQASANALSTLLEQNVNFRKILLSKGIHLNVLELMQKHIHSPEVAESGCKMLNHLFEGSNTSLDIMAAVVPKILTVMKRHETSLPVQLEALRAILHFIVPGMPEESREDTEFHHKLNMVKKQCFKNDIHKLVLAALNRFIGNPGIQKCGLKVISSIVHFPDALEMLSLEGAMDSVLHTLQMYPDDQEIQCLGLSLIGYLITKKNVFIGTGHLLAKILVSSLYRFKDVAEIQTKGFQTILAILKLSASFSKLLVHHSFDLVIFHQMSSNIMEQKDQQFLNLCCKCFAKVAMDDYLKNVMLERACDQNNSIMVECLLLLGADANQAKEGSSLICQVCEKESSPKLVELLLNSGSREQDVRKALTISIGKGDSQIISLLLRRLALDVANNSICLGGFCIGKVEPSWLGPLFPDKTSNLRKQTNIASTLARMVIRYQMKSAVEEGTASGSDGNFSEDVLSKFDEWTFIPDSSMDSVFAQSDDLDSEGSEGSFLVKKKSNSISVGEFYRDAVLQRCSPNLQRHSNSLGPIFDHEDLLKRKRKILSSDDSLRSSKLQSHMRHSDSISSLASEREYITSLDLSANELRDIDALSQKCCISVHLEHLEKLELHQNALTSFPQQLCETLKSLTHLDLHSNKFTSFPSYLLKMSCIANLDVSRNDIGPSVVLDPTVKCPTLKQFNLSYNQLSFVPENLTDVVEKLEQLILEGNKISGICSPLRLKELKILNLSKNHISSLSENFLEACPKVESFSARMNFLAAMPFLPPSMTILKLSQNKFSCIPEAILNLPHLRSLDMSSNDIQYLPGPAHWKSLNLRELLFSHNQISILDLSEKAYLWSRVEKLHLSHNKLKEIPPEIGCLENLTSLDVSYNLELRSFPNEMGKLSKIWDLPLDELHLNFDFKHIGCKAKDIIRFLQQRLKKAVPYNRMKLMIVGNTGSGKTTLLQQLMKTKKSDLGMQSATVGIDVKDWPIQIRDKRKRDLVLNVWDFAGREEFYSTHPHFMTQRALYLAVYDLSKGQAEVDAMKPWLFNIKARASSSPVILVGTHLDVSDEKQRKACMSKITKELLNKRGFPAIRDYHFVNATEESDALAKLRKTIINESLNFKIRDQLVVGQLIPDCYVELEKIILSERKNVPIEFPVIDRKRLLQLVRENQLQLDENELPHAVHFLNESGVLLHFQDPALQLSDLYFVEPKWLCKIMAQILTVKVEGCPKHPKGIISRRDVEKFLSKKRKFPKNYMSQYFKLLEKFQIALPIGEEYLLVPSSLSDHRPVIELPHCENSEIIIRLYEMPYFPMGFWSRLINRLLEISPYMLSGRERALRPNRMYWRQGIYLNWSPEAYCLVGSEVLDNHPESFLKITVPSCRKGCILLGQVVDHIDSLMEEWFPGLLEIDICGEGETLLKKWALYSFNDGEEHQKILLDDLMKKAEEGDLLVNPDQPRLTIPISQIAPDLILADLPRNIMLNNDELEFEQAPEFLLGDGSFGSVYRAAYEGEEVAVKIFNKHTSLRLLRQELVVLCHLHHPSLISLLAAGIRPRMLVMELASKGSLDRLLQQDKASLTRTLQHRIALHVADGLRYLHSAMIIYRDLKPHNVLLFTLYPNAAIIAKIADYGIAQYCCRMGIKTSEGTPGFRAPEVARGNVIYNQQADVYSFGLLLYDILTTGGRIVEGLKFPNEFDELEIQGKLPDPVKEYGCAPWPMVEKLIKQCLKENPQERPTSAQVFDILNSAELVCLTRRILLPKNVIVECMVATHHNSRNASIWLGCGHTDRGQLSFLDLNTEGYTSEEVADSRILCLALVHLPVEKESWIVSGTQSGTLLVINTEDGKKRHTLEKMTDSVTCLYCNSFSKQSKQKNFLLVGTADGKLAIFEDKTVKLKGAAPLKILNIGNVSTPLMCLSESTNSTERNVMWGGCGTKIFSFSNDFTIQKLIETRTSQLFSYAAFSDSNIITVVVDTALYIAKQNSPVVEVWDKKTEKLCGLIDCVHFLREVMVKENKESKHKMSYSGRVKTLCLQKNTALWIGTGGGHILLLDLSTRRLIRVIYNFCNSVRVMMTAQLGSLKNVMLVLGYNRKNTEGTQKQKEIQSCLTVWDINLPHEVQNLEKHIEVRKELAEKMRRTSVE
Source text: b. Recombinant Cellular LRRK2 AlphaScreen Assay
To determine the activity of compounds against LRRK2 kinase activity in cells, the observed LRRK2 kinase-dependent modulation of LRRK2 Ser 935 phosphorylation (Dzamko et al., 2010, Biochem. J. 430: 405-413) was utilized to develop a quantitative 384 well plate-based immunoassay of LRRK2 Ser935 phosphorylation in the human neuroblastoma cell line SH-SY5Y, engineered to over-express recombinant full length LRRK2 protein. A BacMam virus expressing full length recombinant LRRK2 was purchased from Invitrogen and amplified by inoculation of SF-9 cells at MOI 0.3 for 4-5 days in Sf-900 III SFM medium supplemented with 3% fetal bovine serum. Infected cell cultures were then centrifuged at 2000 g for 20 minutes, viral supernatant titer determined by anti-gp64 plaque assay and stored at 4° C. Affinity-purified anti-phospho LRRK2 Ser935 sheep polyclonal antibody (Dzamko et al., 2010, Biochem. J. 430: 405-413) was biotinylated by standard methods (PerkinElmer). Anti-LRRK2 rabbit polyclonal antibody was purchased from Novus Biologicals. AlphaScreen Protein A IgG Kit (including acceptor and donor beads) was purchased from Perkin Elmer. SH-SY5Y cells were grown in DMEM/F12 medium with 10% dialysed fetal bovine serum and harvested by treatment with 0.5% trypsin-EDTA for 5 minutes at 37° C. followed by centrifugation at 1000 rpm for 4 minutes. The cell pellet was resuspended in Opti-MEM reduced serum media (Invitrogen) at 200,000 cells/ml and mixed with the BacMam LRRK2 virus at MOI=50. 50 μl cell solutions were then dispensed to each well of a 384-well plate and incubated at 37° C., 5% CO2 for 24 hours. Serial dilutions of test compounds were prepared in Opti-MEM reduced serum media (Invitrogen) and 5.6 ul transferred from compound plate to cell assay plate to achieve a top final assay concentration of 10 uM. DMSO was used in certain wells as controls. Cells were incubated at 37° C., 5% CO2 for 60 minutes. The medium was then removed and cells lysed by addition of 20 ul cell lysis buffer (Cell Signaling Technology) and incubation at 4° C. for 20 minutes. 10 ul of antibody/acceptor bead mix [(1/1000 biotinylated-pS935 LRRK2 antibody, 1/1000 total-LRRK2 antibody, 1/100 Acceptor beads in AlphaScreen detection buffer (25 mM Hepes (pH 7.4), 0.5% Triton X-100, 1 mg/ml Dextran 500 and 0.1% BSA)] was then added to each well and plates incubated for 2 hours at ambient temperature in the dark. 10 μl of donor beads solution (1/33.3 donor beads in AlphaScreen detection buffer) was then added to each well. Following incubation for a further 2 hours at ambient temperature in the dark, plates were read on an EnVision™ plate reader at emission 520-620 nm with excitation 680 nm. Dose response curve data was based on sigmoidal dose-response model.

[2] = molecular target: T2, Full length G2019 human LRRK2 (Homo sapiens, UniProt Q5S007); experiment: Full length G2019 human LRRK2 Inhibition Mass Spectrometry assay; format: biochemical; conditions: LRRKtide substrate, RapidFire mass spectrometry; read-out: pIC50 in the Full length G2019 human LRRK2 Inhibition Mass Spectrometry assay (converted)
T2 construct: purified recombinant Full length Flag-LRRK2 in assay buffer; made in house; host or cells: HEK293 6E cells transduced with BacMam virus (virus generated in Sf9 cells)
T2 sequence (Q5S007 with tags, fused parts or gaps R50H): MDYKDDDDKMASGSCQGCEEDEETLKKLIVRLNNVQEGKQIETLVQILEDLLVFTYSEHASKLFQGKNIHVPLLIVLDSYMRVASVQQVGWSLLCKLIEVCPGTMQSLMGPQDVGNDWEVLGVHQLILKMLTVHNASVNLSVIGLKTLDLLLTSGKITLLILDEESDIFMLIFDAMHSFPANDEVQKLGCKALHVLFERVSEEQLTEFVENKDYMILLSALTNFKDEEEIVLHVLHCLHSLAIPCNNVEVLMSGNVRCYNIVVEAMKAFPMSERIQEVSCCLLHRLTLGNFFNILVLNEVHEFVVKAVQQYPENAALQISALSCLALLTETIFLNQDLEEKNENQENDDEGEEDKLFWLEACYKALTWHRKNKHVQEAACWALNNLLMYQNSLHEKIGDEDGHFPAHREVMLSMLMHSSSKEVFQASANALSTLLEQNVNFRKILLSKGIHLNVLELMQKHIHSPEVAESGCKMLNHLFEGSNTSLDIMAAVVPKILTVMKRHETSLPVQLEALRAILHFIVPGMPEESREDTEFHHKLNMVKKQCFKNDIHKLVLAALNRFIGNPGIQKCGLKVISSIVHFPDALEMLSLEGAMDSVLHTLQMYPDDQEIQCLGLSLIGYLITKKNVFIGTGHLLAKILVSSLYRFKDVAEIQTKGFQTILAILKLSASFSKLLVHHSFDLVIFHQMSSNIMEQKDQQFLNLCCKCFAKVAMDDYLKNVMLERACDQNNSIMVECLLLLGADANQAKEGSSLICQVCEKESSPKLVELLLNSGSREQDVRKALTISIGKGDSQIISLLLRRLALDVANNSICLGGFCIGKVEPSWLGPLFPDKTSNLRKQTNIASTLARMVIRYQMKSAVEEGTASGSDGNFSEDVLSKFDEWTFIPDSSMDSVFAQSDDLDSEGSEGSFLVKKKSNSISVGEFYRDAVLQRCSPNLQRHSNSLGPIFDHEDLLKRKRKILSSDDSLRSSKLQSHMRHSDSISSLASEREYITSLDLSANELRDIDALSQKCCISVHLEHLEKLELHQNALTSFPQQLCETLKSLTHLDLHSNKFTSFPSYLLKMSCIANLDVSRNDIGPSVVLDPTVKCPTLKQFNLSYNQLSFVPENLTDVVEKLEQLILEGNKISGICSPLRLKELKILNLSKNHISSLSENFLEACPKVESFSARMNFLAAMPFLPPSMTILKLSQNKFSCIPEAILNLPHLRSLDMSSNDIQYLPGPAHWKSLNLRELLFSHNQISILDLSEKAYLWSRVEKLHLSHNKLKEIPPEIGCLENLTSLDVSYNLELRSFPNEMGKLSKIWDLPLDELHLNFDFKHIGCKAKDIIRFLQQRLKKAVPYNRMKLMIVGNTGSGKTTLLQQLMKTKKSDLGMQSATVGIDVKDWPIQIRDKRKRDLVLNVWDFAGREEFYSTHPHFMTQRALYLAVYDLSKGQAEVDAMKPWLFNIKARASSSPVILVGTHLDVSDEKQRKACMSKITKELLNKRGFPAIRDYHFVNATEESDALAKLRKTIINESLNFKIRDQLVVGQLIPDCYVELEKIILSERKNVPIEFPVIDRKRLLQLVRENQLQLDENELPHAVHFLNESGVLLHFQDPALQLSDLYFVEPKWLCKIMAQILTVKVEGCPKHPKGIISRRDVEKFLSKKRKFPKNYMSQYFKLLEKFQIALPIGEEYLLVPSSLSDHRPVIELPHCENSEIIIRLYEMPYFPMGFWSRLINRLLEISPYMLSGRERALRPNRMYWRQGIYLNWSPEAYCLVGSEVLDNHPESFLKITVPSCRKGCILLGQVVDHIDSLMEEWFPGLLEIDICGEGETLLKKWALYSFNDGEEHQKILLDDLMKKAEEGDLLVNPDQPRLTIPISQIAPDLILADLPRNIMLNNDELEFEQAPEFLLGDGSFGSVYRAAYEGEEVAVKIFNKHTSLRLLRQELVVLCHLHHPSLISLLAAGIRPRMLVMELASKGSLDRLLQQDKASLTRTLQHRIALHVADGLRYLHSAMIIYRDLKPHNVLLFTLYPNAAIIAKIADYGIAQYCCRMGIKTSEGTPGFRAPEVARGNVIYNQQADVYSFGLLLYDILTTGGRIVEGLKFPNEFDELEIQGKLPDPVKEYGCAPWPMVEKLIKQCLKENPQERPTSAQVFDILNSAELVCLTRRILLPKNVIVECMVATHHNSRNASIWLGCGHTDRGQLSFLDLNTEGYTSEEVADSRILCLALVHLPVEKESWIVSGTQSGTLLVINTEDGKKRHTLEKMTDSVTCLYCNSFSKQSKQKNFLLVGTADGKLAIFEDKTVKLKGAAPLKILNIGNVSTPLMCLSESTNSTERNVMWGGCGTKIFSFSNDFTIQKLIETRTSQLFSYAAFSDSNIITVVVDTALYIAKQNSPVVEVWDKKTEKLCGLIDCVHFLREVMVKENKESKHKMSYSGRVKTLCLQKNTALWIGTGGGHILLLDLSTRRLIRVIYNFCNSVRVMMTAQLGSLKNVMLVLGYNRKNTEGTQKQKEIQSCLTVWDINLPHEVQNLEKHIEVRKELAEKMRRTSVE
Description: a. Full Length G2019 Human LRRK2 Inhibition Mass Spectrometry Assay
This assay for Leucine Rich Repeat Kinase 2 (LRRK2) inhibition is based on the direct measurement of the peptide ‘LRRKtide’ (LRRKtide: RLGRDKYKT*LRQIRQ and “*” refers to the site of phosphorylation.) and phosphorylated ‘LRRKtide’ using a high throughput RapidFire mass spectrometry assay. Inhibitors are compounds that reduce the conversion of LRRKtide to phospho-LRRKtide.
HEK293 6E cells were incubated in a 37° C. incubator with a humidified atmosphere of 5% CO2 on an orbital shaker rotating at 110 rpm. On the day of transduction, the cell viability was higher than 98% and the cell density was in the range of 1×10^6˜1.5×10^6 cells/ml. HEK293 6E cells were centrifuged at 1,000 rpm for 10 min, and then the cells were resuspended in fresh Freestyle 293 expression medium (Invitrogen:12338) with 0.1% F-68 (Invitrogen:24040-032) but without antibiotics (G418) at density of 1×10^6 cells/ml. BacMam virus with Flag-hu LRRK2 (genotypically normal) gene was centrifuged at 40,000 g for 2 hours, then resuspended in fresh Freestyle 293 expression medium. The resuspended virus was added into the cells in at MOI of 10. The cells were incubated in a 37° C. incubator with a humidified atmosphere of 5% CO2 in air on an orbital shaker rotating at 110 rpm. Cultures were harvested at approximately 48 hours post-transduction by centrifugation at 4,000 rpm for 20 min and pellets were frozen for purification.
The suspended cells were lysed by sonication on ice for 30 min (2 secs on/4 sec off, 20% amplitude), and centrifuged at 10,000 rpm for 30 minutes at 4° C. The supernatant was incubated with 1 mL per litre of cell culture of anti-Flag magnetic beads (Sigma-Aldrich: M8823) at 4° C. for 3 hours, then the beads were washed by 5 mL (5 column volume) binding buffer (50 mM Tris pH7.5@ 4C, 500 mM NaCl, 0.5 mM EDTA, 0.1% TritonX-100, 10% glycerol, freshly add 2 mM DTT) for three times. The Flag tagged LRRK2 proteins were eluted by Elution buffer (50 mM Tris pH7.5@ 4C, 500 mM NaCl, 0.5 mM EDTA, 0.1% TritonX-100, 10% glycerol, freshly add 2 mM DTT, 250 ug/ml Flag peptide (Sigma-Aldrich:F3290)) at 4° C. for 2 hours. Flag peptide was removed by Zeba Spin Desalting Columns, 7K MWCO (Thermo-Fisher: 89893) and the buffer of eluted LRRK2 proteins was exchanged into Storage Buffer (50 mM Tris pH7.5@4C, 150 mM NaCl, 0.5 mM EDTA, 0.02% Triton X-100, 2 mM DTT and 50% Glycerol) using Amicon Ultra Centrifugal Filter Units (100 kD) (Merck: UFC910096). Fractions containing LRRK2 proteins were pooled, aliquoted and stored at −80° C. Protein concentration was determined by Bradford protein assay, and protein purity was analyzed by NuPAG Novex 4-12% Bis-Tris Protein Gels (Invitrogen: NP0322BOX).
• 1) A 10 mM test compound was dissolved in 100% DMSO and serially diluted 1 in 4. 100 nL of this dilution series was then added to a 384 well, v bottom polypropylene plate, excluding columns 6 and 18. 100 nL of DMSO was added to columns 6 and 18 as controls wells. Assay dilution gave a top final assay concentration of test compound of 100 μM • 2) 50 μl of 1% formic acid in laboratory grade water was added to column 18 using a multidrop combi dispenser to act as a pre stopped assay control. • 3) 5 μl of ‘enzyme solution’ containing 50 nM of purified recombinant Full length Flag-LRRK2 in assay buffer (50 mM Hepes (pH 7.2), 10 mM MgCl2, 150 mM NaCl, 5% glycerol, 0.0025% triton X-100 and 1 mM DTT) was added to all wells using a multidrop combi dispenser, giving a final assay concentration of 25 nM LRRK2 enzyme. […] Test plates were then incubated for 30 minutes at room temperature. • 4) 5 μl ‘substrate solution’ containing 50 uM LRRKtide peptide substrate and 4 mM ATP was added to all wells of the plate using a multidrop combi dispenser giving a final assay concentration of 25 uM LRRKtide and 2 mM ATP. Test plates were then incubated for 1 hour at room temperature. […]

Cc1nc(N2CC(O)C2)cc(-n2ncc3cc(C)c(C4CCN(C5CCOC5)CC4F)cc32)n1 (single isomer, unassigned) [Example E13, cis-1-(6-(6-(3-Fluoro-1-(tetrahydrofuran-3-yl)piperidin-4-yl)-5-methyl-1H-indazol-1-yl)-2-methylpyrimidin-4-yl)azetidin-3-ol]
IC50 [1]: ≤ 0.1 µM | IC50 [2]: ≤ 1 µM

Cc1nc(N2CCO[C@H](CO)C2)cc(-n2ncc3cc(C)c(C4CCN(C5COCC5F)CC4)cc32)n1 (single isomer, unassigned) [Example E149]
IC50 [1]: ≤ 1 µM | IC50 [2]: ≤ 0.1 µM

COc1nc(N2CCO[C@@H](CO)C2)cc(-n2ncc3cc(C)c(C4CCN(C5CCOC5)CC4F)cc32)n1 (single isomer, unassigned) [Example E119]
IC50 [1]: ≤ 0.1 µM | IC50 [2]: ≤ 0.1 µM

Cc1nc(N2CC(C)(O)C2)cc(-n2ncc3cc(Cl)c(C4CCN(C5CCOC5)CC4)cc32)n1 (single isomer, unassigned) [Example E128, 1-(6-(5-chloro-6-(1-(tetrahydrofuran-3-yl)piperidin-4-yl)-1H-indazol-1-yl)-2-methyl-pyrimidin-4-yl)-3-methylazetidin-3-ol]
IC50 [1]: ≤ 1 µM | IC50 [2]: ≤ 1 µM

Cc1nc(N2CCOC[C@H]2CO)cc(-n2ncc3cc(C)c(C4CCN(C5CCOC5)CC4)cc32)n1 (single isomer, unassigned) [Example E111]
IC50 [2]: ≤ 1 µM

COc1nc(N2CCOCC2)cc(-n2ncc3cc(C)c(C4CCN(C5CCOC5)CC4F)cc32)n1 (single isomer, unassigned) [Example E125, 4-(6-(6-(3-fluoro-1-(tetrahydrofuran-3-yl)-piperidin-4-yl)-5-methyl-1H-indazol-1-yl)-2-methoxypyrimidin-4-yl)morpholine]
IC50 [1]: ≤ 0.01 µM | IC50 [2]: ≤ 1 µM

COc1nc(N2CCOCC2)cc(-n2ncc3cc(C)c(C4CCN(C5CCOC5)CC4F)cc32)n1 (single isomer, unassigned) [Example E126, 4-(6-(6-(3-fluoro-1-(tetrahydrofuran-3-yl)-piperidin-4-yl)-5-methyl-1H-indazol-1-yl)-2-methoxypyrimidin-4-yl)morpholine]
IC50 [1]: ≤ 0.1 µM | IC50 [2]: ≤ 0.1 µM

Cc1nc(N2CCO[C@H](CO)C2)cc(-n2ncc3cc(C)c(C4CCN(C5COCC5F)CC4)cc32)n1 (single isomer, unassigned) [Example E150]
IC50 [1]: ≤ 0.1 µM | IC50 [2]: ≤ 1 µM

Cc1nc(N2CCOC(C(C)O)C2)cc(-n2ncc3cc(C)c(C4CCN(C5CCOC5)CC4)cc32)n1 (single isomer, unassigned) [Example E142, 1-(4-(2-methyl-6-(5-methyl-6-(1-(tetrahydrofuran-3-yl)piperidin-4-yl)-1H-indazol-1-yl)pyrimidin-4-yl)morpholin-2-yl)ethanol]
IC50 [1]: ≤ 1 µM | IC50 [2]: ≤ 1 µM

Cc1nc(N2CCO[C@H](CO)C2)cc(-n2ncc3cc(C)c(C4CCN(C5COCC5C)CC4)cc32)n1 (stereo partly drawn) [Example E155, ((2S)-4-(2-methyl-6-(5-methyl-6-(1-(4-methyltetrahydrofuran-3-yl)piperidin-4-yl)-1H-indazol-1-yl)pyrimidin-4-yl)morpholin-2-yl)methanol]
IC50 [1]: ≤ 1 µM | IC50 [2]: ≤ 0.1 µM

Cc1nc(N2CCO[C@@H](CO)C2)cc(-n2ncc3cc(C)c(C4CCN(C5CCOC5)CC4F)cc32)n1 (single isomer, unassigned) [Example E102]
IC50 [1]: ≤ 1 µM | IC50 [2]: ≤ 0.1 µM

Cc1nc(N2CC(C)(O)C2)cc(-n2ncc3cc(Cl)c(C4CCN(C5CCOC5)CC4)cc32)n1 (single isomer, unassigned) [Example E127, 1-(6-(5-chloro-6-(1-(tetrahydrofuran-3-yl)piperidin-4-yl)-1H-indazol-1-yl)-2-methyl-pyrimidin-4-yl)-3-methylazetidin-3-ol]
IC50 [2]: ≤ 0.1 µM

[2H]C1(N2CCC(c3cc4c(cnn4-c4cc(N5CCO[C@H](CO)C5)nc(C)n4)cc3C)CC2)CCOC1 (single isomer, unassigned) [Example E33]
IC50 [2]: ≤ 1 µM

Cc1nc(OC2CC(O)C2)cc(-n2ncc3cc(C)c(C4CCN(C5CCOC5)CC4)cc32)n1 (single isomer, unassigned) [Example E146, 3-((2-methyl-6-(5-methyl-6-(1-(tetrahydrofuran-3-yl)piperidin-4-yl)-1H-indazol-1-yl)pyrimidin-4-yl)oxy)cyclobutanol]
IC50 [2]: ≤ 1 µM

Cc1nc(N2CC(CC(C)O)C2)cc(-n2ncc3cc(Cl)c(C4CCN(C5CCOC5)CC4)cc32)n1 (single isomer, unassigned) [Example E44, 1-(1-(6-(5-Chloro-6-(1-(tetrahydrofuran-3-yl)piperidin-4-yl)-1H-indazol-1-yl)-2-methylpyr-imidin-4-yl)azetidin-3-yl)propan-2-ol]
IC50 [1]: ≤ 0.1 µM
